ChEMBL document CHEMBL4138231 (Eur J Med Chem, 2018)
The source made the active and inactive calls. The calls are words filed in the database; no cut-off is given here.

Key:
K562 = assay: Antiproliferative activity against human K562 cells after 72 hrs by CCK8 assay; assay type: functional
Huh-7 = assay: Antiproliferative activity against human HuH7 cells after 72 hrs by CCK8 assay; assay type: functional
NCI-H1975 = assay: Antiproliferative activity against human NCI-H1975 cells after 72 hrs by CCK8 assay; assay type: functional
[1] = molecular target: Serine/threonine-protein kinase PLK3 (Homo sapiens, UniProt Q9H4B4); assay: Inhibition human recombinant GST-tagged Plk3 catalytic domain (58 to 340 residues) expressed in baculovirus expression system after 1 hr by FRET-based Z'-Lyte assay
MCF7 = assay: Antiproliferative activity against human MCF7 cells after 72 hrs by CCK8 assay; assay type: functional
HeLa = assay: Antiproliferative activity against human HeLa cells after 72 hrs by CCK8 assay; assay type: functional
A549 = assay: Antiproliferative activity against human A549 cells after 72 hrs by CCK8 assay; assay type: functional
[2] = molecular target: Serine/threonine-protein kinase PLK2 (Homo sapiens, UniProt Q9NYY3); assay: Inhibition human recombinant full length GST-tagged Plk2 expressed in baculovirus expression system after 1 hr by FRET-based Z'-Lyte assay
Sequence of Serine/threonine-protein kinase PLK2 (Q9NYY3 whole entry): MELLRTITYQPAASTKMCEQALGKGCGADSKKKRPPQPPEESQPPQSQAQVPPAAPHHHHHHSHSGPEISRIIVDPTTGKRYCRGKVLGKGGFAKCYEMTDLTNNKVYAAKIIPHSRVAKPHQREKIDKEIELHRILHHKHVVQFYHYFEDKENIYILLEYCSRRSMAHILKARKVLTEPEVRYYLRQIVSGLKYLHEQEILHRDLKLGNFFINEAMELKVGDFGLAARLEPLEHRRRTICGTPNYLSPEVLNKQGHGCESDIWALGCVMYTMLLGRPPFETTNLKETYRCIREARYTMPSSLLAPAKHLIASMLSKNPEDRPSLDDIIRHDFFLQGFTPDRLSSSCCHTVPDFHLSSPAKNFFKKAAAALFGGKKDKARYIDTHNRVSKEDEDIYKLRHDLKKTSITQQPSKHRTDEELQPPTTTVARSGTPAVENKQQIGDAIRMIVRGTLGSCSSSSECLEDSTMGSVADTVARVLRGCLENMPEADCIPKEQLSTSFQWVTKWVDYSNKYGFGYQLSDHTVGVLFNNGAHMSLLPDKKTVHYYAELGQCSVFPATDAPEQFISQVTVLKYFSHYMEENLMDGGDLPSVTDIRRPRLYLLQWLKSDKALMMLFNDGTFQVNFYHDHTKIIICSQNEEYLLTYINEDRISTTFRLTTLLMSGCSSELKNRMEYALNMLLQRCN

Sequence of Serine/threonine-protein kinase PLK3 (Q9H4B4 whole entry, the tested form may be a part): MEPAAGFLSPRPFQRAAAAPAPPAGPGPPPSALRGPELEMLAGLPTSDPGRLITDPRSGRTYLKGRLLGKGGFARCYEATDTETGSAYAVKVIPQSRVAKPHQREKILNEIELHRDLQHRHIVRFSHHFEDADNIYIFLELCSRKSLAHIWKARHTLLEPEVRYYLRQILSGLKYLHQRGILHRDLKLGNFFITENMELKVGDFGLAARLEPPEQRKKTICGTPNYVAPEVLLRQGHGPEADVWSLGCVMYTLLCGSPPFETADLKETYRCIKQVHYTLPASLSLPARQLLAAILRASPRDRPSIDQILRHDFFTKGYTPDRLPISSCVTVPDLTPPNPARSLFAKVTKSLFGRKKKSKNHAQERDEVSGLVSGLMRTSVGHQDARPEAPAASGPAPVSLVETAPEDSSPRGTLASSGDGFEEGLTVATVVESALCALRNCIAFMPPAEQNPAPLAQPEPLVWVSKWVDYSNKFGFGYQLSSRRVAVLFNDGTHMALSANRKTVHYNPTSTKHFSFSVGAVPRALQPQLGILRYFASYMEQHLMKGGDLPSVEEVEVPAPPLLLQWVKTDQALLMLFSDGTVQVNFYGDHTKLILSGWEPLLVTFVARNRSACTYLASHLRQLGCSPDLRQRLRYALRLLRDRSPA

Compound | GI50 (K562; K562, 72 h) [nM] | GI50 (Huh-7; Huh-7, 72 h) [nM] | GI50 (NCI-H1975; NCI-H1975, 72 h) [nM] | IC50 [1] [nM] | GI50 (MCF7; MCF7, 72 h) [nM] | GI50 (HeLa) | GI50 (A549; A549, 72 h) [nM] | GI50 (Huh-7) | GI50 (NCI-H1975) | IC50 [2] [nM] | GI50 (MCF7) | GI50 (K562) | GI50 (A549)
CC[C@@H]1C(=O)N(C)c2cnc(-n3ccc4ccccc43)nc2N1C1CCCC1 | 6910 | 4690 | 28300 | > 20000 | 17200 | 33900 nM | 57500 | – | – | – | – | – | –
CCC1C(=O)N(C)c2cnc(-n3ccc4cc(C(=O)NC5CCCC5)ccc43)nc2N1c1ccn(C)n1 (racemic) | 31300 | – | – | – | – | 27400 nM | 39500 | inactive | inactive | 90.9 | inactive | – | –
CC[C@@H]1C(=O)N(C)c2cnc(-n3ccc4cc(C(=O)NC(C)C)ccc43)nc2N1C1CCCC1 | 786 | 1660 | 1840 | – | 1670 | 292 nM | 1780 | – | – | 17.4 | – | – | –
CCC1C(=O)N(C)c2cnc(-n3ccc4cc(C(=O)NC(C)C)ccc43)nc2N1c1ccn(C)n1 (racemic) | 8910 | 6740 | 12200 | > 10000 | 8420 | 4350 nM | 22000 | – | – | 124 | – | – | –
CCCNC(=O)c1ccc2c(ccn2-c2ncc3c(n2)N(C2CCCC2)[C@H](CC)C(=O)N3C)c1 | 395 | 689 | 786 | – | 592 | 238 nM | 1640 | – | – | 11.3 | – | – | –
CCC1C(=O)N(C)c2cnc(Nc3ccc(S(=O)(=O)NCCCO)cc3)nc2N1c1ccn(C)n1 (racemic) | 13400 | – | 25800 | – | 21600 | 23700 nM | 48800 | inactive | – | 192 | – | – | –
CC[C@@H]1C(=O)N(C)c2cnc(Nc3ccc(S(=O)(=O)NC4CCCC4)cc3)nc2N1C1CCCC1 | 872 | 389 | 1710 | – | 688 | 609 nM | 1150 | – | – | 23.9 | – | – | –
CCCNS(=O)(=O)c1ccc(Nc2ncc3c(n2)N(C2CCCC2)[C@H](CC)C(=O)N3C)cc1 | 548 | 278 | 2100 | – | 344 | 459 nM | 563 | – | – | 17.8 | – | – | –
CC[C@@H]1C(=O)N(C)c2cnc(-n3ccc4cc(C(=O)NC5CCCC5)ccc43)nc2N1C1CCCC1 | 414 | 259 | 856 | > 20000 | 795 | 247 nM | 670 | – | – | 7.06 | – | – | –
CCCCNC(=O)c1ccc2c(ccn2-c2ncc3c(n2)N(C2CCCC2)[C@H](CC)C(=O)N3C)c1 | 673 | 683 | 990 | – | 634 | 346 nM | 1160 | – | – | 16.5 | – | – | –
CC[C@@H]1C(=O)N(C)c2cnc(Nc3ccc(C(=O)NC4CCN(C)CC4)cc3OC)nc2N1C1CCCC1 [BI-2536] | 68 | 28 | 230 | – | 67 | 34 nM | 57 | – | – | – | – | – | –
CCNC(=O)c1ccc2c(ccn2-c2ncc3c(n2)N(C2CCCC2)[C@H](CC)C(=O)N3C)c1 | 428 | 596 | 882 | – | 784 | 418 nM | 1120 | – | – | 4.88 | – | – | –
CC[C@@H]1C(=O)N(C)c2cnc(Nc3ccc(S(=O)(=O)NCCCO)cc3)nc2N1C1CCCC1 | 331 | 262 | 2140 | – | 363 | 357 nM | 437 | – | – | 8.16 | – | – | –
CC[C@@H]1C(=O)N(C)c2cnc(-n3ccc4cc(C(=O)NCC(C)C)ccc43)nc2N1C1CCCC1 | 638 | – | – | – | 953 | 3280 nM | 1730 | inactive | inactive | 18.6 | – | – | –
CCC1C(=O)N(C)c2cnc(Nc3ccc(S(=O)(=O)NCCO)cc3)nc2N1c1ccn(C)n1 (racemic) | – | – | – | – | – | inactive | – | inactive | inactive | 478 | inactive | inactive | inactive
CC[C@@H]1C(=O)N(C)c2cnc(Nc3ccc(S(=O)(=O)NCCO)cc3)nc2N1C1CCCC1 | 546 | 278 | 2100 | – | 344 | 459 nM | 563 | – | – | 7.86 | – | – | –
CC[C@@H]1C(=O)N(C)c2cnc(Nc3ccc(S(=O)(=O)NCC(C)C)cc3)nc2N1C1CCCC1 | 705 | 411 | 1040 | – | 403 | 561 nM | 750 | – | – | 21.8 | – | – | –
